Test results as given in patent US12534460B2, “LSD salt crystal forms” (Mind Medicine, Inc., priority 2021, dated 2026).
Where two headings read alike, the source gives them in different places.

What was measured:
[1] = Heat cycled maturation and solubility assessment (liquors analysed by HPLC versus a standard)
[2] = Accelerated storage at 40° C./75% RH for 14 days; format: physicochemical; conditions: for XRPD of Output / Nature of solid: 40° C./75% RH, 14 days, unsealed vials; for XRPD of Output: physical stability; for Nature of solid: visual observation for deliquescence; for change in form after stress: after stress at 40° C./75 RH
Description: Samples were visually observed for signs of deliquescence and analysed by XRPD post stressing for physical stability and HPLC for chemical stability.

[3] = Compression of amorphous solid, analysis by XRPD; format: physicochemical; conditions: force of 10^5N for approximately 24 hours
Description: Experimental: D-LSD amorphous oxalate (Lot: DC1134, ˜50 mg) was pressed with a force of 10^5N for approximately 24 hours. The solids were then removed from the press for analysis by XRPD.

CCN(CC)C(=O)[C@@H]1C=C2c3cccc4[nH]cc(c34)C[C@H]2N(C)C1.O=S(=O)(O)O [D-LSD Sulfate Amorphous Salt, D-LSD sulfate amorphous salt] gave a solubility ([1]; EtOH, at 25° C., sulfate salt) of over 100 mg/mL, a solubility ([1]; IPA/water (95:5), at 40° C., sulfate salt) of over 100 mg/mL and a solubility ([1]; MeOH, at 25° C., sulfate salt) of over 200 mg/mL. It also gave a solubility ([1]; iPrOAc/water (98:2), at 40° C., sulfate salt) of over 100 mg/mL.

Work on Br.CCN(CC)C(=O)[C@@H]1C=C2c3cccc4[nH]cc(c34)C[C@H]2N(C)C1 [D-LSD amorphous HBr, D-LSD hydrobromide amorphous salt] yielded a solubility ([1]; 1,4-dioxane, at 40° C., HBr salt) of over 100 mg/mL, a solubility ([1]; EtOH, at 25° C., HBr salt) of over 100 mg/mL and a solubility ([1]; IPA/water (95:5 v/v), at 40° C., HBr salt) of over 100 mg/mL. For the same compound, the solubility ([1]; MEK, at 25° C., HBr salt) was over 100 mg/mL, the solubility ([1]; MeOH, at 25° C., HBr salt) was over 200 mg/mL and the solubility ([1]; THF/water (95:5 v/v), at 25° C., HBr salt) was over 200 mg/mL. For the same compound, the solubility ([1]; iPrOAc/water (98:2 v/v), at 40° C., HBr salt) was over 100 mg/mL, the solubility ([1]; nitromethane, at 25° C., HBr salt) was over 100 mg/mL and the “Solubility 25° C.” value ([1]; solvent EtOAc, input D-LSD amorphous HBr) was 2.63 mg/mL. For the same compound, the “Solubility 25° C.” value ([1]; solvent IPAC*, input D-LSD amorphous HBr) was 4.19 mg/mL, the “Solubility 25° C.” value ([1]; solvent MIBK, input D-LSD amorphous HBr) was 16.4 mg/mL and the “Solubility 25° C.” value ([1]; solvent MeCN, input D-LSD amorphous HBr) was 8.68 mg/mL. The “Solubility 25° C.” value ([1]; solvent TBME*, input D-LSD amorphous HBr) was 9.84 mg/mL, the “Solubility 25° C.” value ([1]; solvent chlorobenzene, input D-LSD amorphous HBr) was 3.12 mg/mL and the “Solubility 25° C.” value ([1]; solvent heptane, input D-LSD amorphous HBr) was 0.05 mg/mL. The “Solubility 25° C.” value ([1]; solvent toluene, input D-LSD amorphous HBr) was 3.91 mg/mL and the “Solubility 25° C.” value ([1]; solvent water, input D-LSD amorphous HBr) was 25.1 mg/mL.

For CCN(CC)C(=O)C1C=C2c3cccc4[nH]cc(c34)CC2N(C)C1.O=C(O)C(=O)O [D-LSD oxalate Pattern B], the “XRPD of Output” value [2] was “oxalate Pattern B”, the Nature of solid [2] was “solid” and the “change in form after stress” value [2] was “did not show a change in form”.

With CCN(CC)C(=O)[C@@H]1C=C2c3cccc4[nH]cc(c34)C[C@H]2N(C)C1.O=P(O)(O)O [D-LSD phosphate Pattern C, D-LSD phosphoric acid salt Pattern C] the “XRPD of Output” value [2] was “phosphate Pattern C”, the Nature of solid [2] was “solid” and the “change in form after stress” value [2] was “did not show a change in form”.

With CCN(CC)C(=O)[C@@H]1C=C2c3cccc4[nH]cc(c34)C[C@H]2N(C)C1.O=C(O)C(O)C(O)C(=O)O [D-LSD D-tartrate Pattern A, D-LSD D-tartaric acid salt] the “reversibility of water uptake as relative humidity decreases” value (DVS profile, only minor hysteresis) was “reversible”, the “weight lost during the initial desorption cycle” value ([…]) was 0.6 wt % and the “water absorbed during the subsequent sorption cycle” value (at 90% RH) was 1%. For the same compound, the “water absorbed during the subsequent sorption cycle” value (up to 80% RH) was 0.65%.

For CCN(CC)C(=O)[C@@H]1C=C2c3cccc4[nH]cc(c34)C[C@H]2N(C)C1.O=C(O)C(=O)O [Amorphous D-LSD oxalate, amorphous D-LSD oxalate salt], the “form by XRPD after compression” value [3] was “remained as an amorphous solid”, the solubility ([1]; EtOH, at 25° C., oxalate salt) was over 200 mg/mL and the solubility ([1]; MeOH, at 25° C., oxalate salt) was over 200 mg/mL. The “Solubility 25° C.” value ([1]; solvent 1,4-dioxane, input amorphous D-LSD oxalate) was 9.20 mg/mL, the “Solubility 25° C.” value ([1]; solvent Chlorobenzene, input amorphous D-LSD oxalate) was 2.30 mg/mL and the “Solubility 25° C.” value ([1]; solvent EtOAc, input amorphous D-LSD oxalate) was 3.42 mg/mL. For the same compound, the “Solubility 25° C.” value ([1]; solvent IP AC, input amorphous D-LSD oxalate) was 4.63 mg/mL, the “Solubility 25° C.” value ([1]; solvent MEK, input amorphous D-LSD oxalate) was 2.61 mg/mL and the “Solubility 25° C.” value ([1]; solvent MIBK, input amorphous D-LSD oxalate) was 1.60 mg/mL. The “Solubility 25° C.” value ([1]; solvent MeCN, input amorphous D-LSD oxalate) was 5.49 mg/mL, the “Solubility 25° C.” value ([1]; solvent Me—THF, input amorphous D-LSD oxalate) was 6.14 mg/mL and the “Solubility 25° C.” value ([1]; solvent THF:water (95:5), input amorphous D-LSD oxalate) was 8.67 mg/mL. For the same compound, the “Solubility 25° C.” value ([1]; solvent nitromethane, input amorphous D-LSD oxalate) was 6.49 mg/mL.
